Reference: patent US20180037605A1, “SYNTHETIC PEPTIDES AND ENZYMATIC FORMATION OF INTRACELLULAR HYDROGELS” (BRANDEIS UNIVERSITY, priority 2015, published 2018)
Values after ≈ are worked out from the molar mass of the structure shown.

How the values were obtained:
[1] = system: MCF-7 cells; experiment: MTT cell viability, MCF-7; assay type: cell-based; settings: third day (72 h)
Experimental: (§3) The cells were seeded in exponential growth phase in a 96 well plate at a concentration of 1×10^4 cell/well with 100 μL of culture medium. Cells were allowed to attach for 24 hours at 37° C., 5% CO2 and then the culture medium was removed with the help of vacuum pump. Culture medium containing the precursors in gradient concentrations was added to each well (0 μM as control). 10 μL of 5 mg/mL MTT ((3-(4,5-Dimethylthiazol-2-yl)-2,5-diphenyltetrazolium bromide) was added to each well after 24 hours, 48 hours, and 72 hours incubation. After 4 hours incubation of the plated cells in dark place, 100 μL 10% SDS with 0.01 M HCl was added to each well to dissolve the purple formazan and to stop the reduction reaction. 24 hours later, the absorbance of the solution at 595 nm was finally measured with a DTX 880 Multimode Detector.

[2] = Systemic toxicity after intravenous injection in mice; settings: 5 to 20 mg/kg, after 7 days
[3] = system: HS-5 cells; settings: 72 h
Experimental: as §3

[4] = system: SKOV3 cells; experiment: LC-MS of cell lysates and culture medium, SKOV3; assay type: cell-based
Experimental: (§1) After confirming that CES converts the precursor L-10 or D-10 into the hydrogelator L-12 or D-12, the stability of the precursors (L-10 or D-10) when incubated with the ovarian cancer cells was determined. After culturing the precursors with SKOV3 or A2780cis cells at 37° C. for 4 hours, the cell lysates and culture medium were collected for liquid chromatography-mass spectrometry (LC-MS) analysis and the intracellular concentrations of the precursors, the hydrogelators, and the relevant proteolyzed products were determined. After incubation with SKOV3 or A2780cis cells for 4 hours, more than 85% of the precursors (L-10 or D-10) turned into the corresponding hydrogelators (L-12 or D-12; see Table 1 below).

[5] = system: Saos-2 cells; experiment: MTT cell viability, Saos-2; assay type: cell-based; settings: third day (72 h)
Experimental: as §3

[6] = in vitro; settings: human
Experimental: as §3

[7] = system: A375 cells; experiment: MTT cell viability, A375; assay type: cell-based; settings: third day (72 h)
Experimental: as §3

[8] = system: SKOV3 cells
Experimental: SKOV3 cells were seeded in exponential growth phase in a 96 well plate at a concentration of 1×10^4 cell/well with 100 μL of McCoy's 5A medium modified supplemented with 10% fetal bovine serum (FBS), 100 U/mL penicillin and 100 μg/ml streptomycin. The cells were allowed to attach to the wells for 24 hours at 37° C., 5% CO2. The culture medium was removed and 100 μL culture medium containing compounds (immediately diluted from fresh prepared stock solution of 10 mM) at gradient concentrations (0 μM as the control) was placed into each well. McCoy's 5A medium modified was regarded as blank. After culturing at 37° C., 5% CO2 for 24 hours, 48 hours, and 72 hours, 10 μL of 5 mg/mL MTT (3-(4,5-Dimethylthiazol-2-yl)-2,5-diphenyltetrazolium bromide) was added to each well, and the plated cells were incubated in dark place for 4 hours. 100 μL 10% SDS with 0.01 M HCl was added to each well to stop the reduction reaction and to dissolve the purple formazan. After incubation of the cells at 37° C. for overnight, the OD at 595 nm of the solution was measured in a microplate reader.
as §3

[9] = mouse, in vivo, 20 mg/kg
[10] = system: HCC1937 cells; experiment: MTT cell viability, HCC1937; assay type: cell-based; settings: third day (72 h)
[11] = system: HepG2 cells; experiment: MTT cell viability, HepG2; assay type: cell-based; settings: third day (72 h)
Experimental: as §3

[12] = system: MES-SA cells; experiment: MTT cell viability, MES-SA; assay type: cell-based; settings: third day (72 h)
Experimental: as §3

[13] = system: A2780 cells; experiment: MTT cell viability, A2780; assay type: cell-based
[14] = system: co-cultured HS-5 and SKOV3 cells; experiment: Cell viability of co-cultured HS-5 and SKOV3 cells; assay type: cell-based; settings: D-10 37 μg/mL
Experimental: (§2) 5×10^3 of SKOV3 cells (or A2780cis) and 5×10^3 HS-5 cells per well were seeded together and co-cultured in DMEM medium. Based on the results in FIG. 22, the concentrations of L-10 and D-10 at 73 and 37 μg/mL, respectively, were chosen. […] The inhibitory activities of L-10 and D-10 towards the co-culture agree well with their cytotoxicity against A2780cis, SKOV3, and H-5 cells. […] For example, on the first day, the cell viabilities of co-cultured HS-5 and SKOV3 cells and co-cultured HS-5 and A2780cis cells treated by D-10 (37 μg/mL) were 79% and 80%, respectively. While on the third day, the cell viabilities dropped to 44% and 57%, respectively. […] Contrary to the case of D-10, the efficacies of L-10 were almost the same between day two and day three (FIG. 25A), which agreed with the lower in vivo stability of L-10 than that of D-10.

[15] = system: U87MG cells; experiment: MTT cell viability, U87MG; assay type: cell-based; settings: 72 hours incubation
Experimental: as §3

[16] = system: MES-SA/D×5 cells; experiment: MTT cell viability, MES-SA/D×5; assay type: cell-based; settings: third day (72 h)
Experimental: as §3

[17] = system: HeLa cells; experiment: MTT cell viability, HeLa; assay type: cell-based; settings: third day (72 h)
Experimental: D-7 and D-10 (FIG. 12A), the enantiomers of L-7 and L-10, were prepared as described in Example 3. HeLa and SKOV3 cells were used in an MTT assay for assessing cytotoxicity of the peptides against these cancer cell lines.

[18] = system: HS-5 cells; experiment: MTT cell viability, HS-5 stromal cells; settings: 20 μM (D-10) and 50 μM (L-10)
Experimental: as §3

[19] = system: T98G cells; experiment: MTT cell viability, T98G; assay type: cell-based; settings: 72 hours incubation
Experimental: as §3

[20] = system: co-cultured HS-5 and A2780cis cells; experiment: Cell viability of co-cultured HS-5 and A2780cis cells; assay type: cell-based; settings: D-10 37 μg/mL
Experimental: as §2

[21] = system: A2780cis cells
[22] = system: A2780cis cells; experiment: LC-MS of cell lysates, A2780cis; assay type: cell-based; settings: 100 μm D-10
Experimental: as §1

[23] = system: PC-12 cells; experiment: MTT cell viability, PC-12 neuronal cells; assay type: cell-based, rat
Experimental: as §3

[24] = SKOV3 cell lysates, 4 hours, 37° C., 20 μm D-10 or 50 μm L-10
[25] = combination of D-10 and CP, 72 hours

O=C(CCC(=O)OCCNC(=O)[C@@H](Cc1ccccc1)NC(=O)[C@@H](Cc1ccccc1)NC(=O)Cc1ccc2ccccc2c1)NCCS(=O)(=O)O [D-10]
IC50, MCF-7 [1]: 25 µg/mL (≈ 34.2 µM)
effect on weight and organ index of mice [2]: hardly affected
IC50, HS-5 [3]: 50 µg/mL (≈ 68.4 µM)
cumulative intracellular concentration of precursor and hydrogelator relative to incubation concentration ([4]; 4 hours incubation): about 5 fold
Ratio of hydrogelator to precursor after 4 hours ([4]; SKOV3 cell lysates, 20 μm D-10 or 50 μm L-10): 6.75
Hydrogelator (12) intracellular concentration [4, 24]: 108 μm
Precursor (10) intracellular concentration [4, 24]: 16 μm
IC50, Saos-2 [5]: 44 µg/mL (≈ 60.2 µM)
viability at 3 day, 37 μg/mL [6]: ~80%
IC50, A375 [7]: 38 µg/mL (≈ 52 µM)
inhibition of SKOV3 ovarian cancer cells ([8]; 48 h, 50 μM): over 70%
IC50, SKOV3 ([8]; 72 h): 31 µg/mL (≈ 42.4 µM)
inhibition of SKOV3 cells by mixture with CP ([8]; 72 h, 15 μg/mL): about 74%
viability of SKOV3 cells ([8]; human, 72 hours, 37 μg/mL): 10%
tolerability [9]: well tolerated
IC50, HCC1937 [10]: 26 µg/mL (≈ 35.6 µM)
IC50, HepG2 [11]: 88 µg/mL (≈ 120 µM)
IC50, MES-SA [12]: 31 µg/mL (≈ 42.4 µM)
viability of A2780 cells, combination with CP [13, 25]: 9%
IC50, A2780 ([13]; third day (72 h)): 37 µg/mL (≈ 50.6 µM)
cell viability of co-cultured HS-5 and SKOV3 cells ([14]; first day): 79%
cell viability of co-cultured HS-5 and SKOV3 cells ([14]; third day): 44%
IC50, U87MG [15]: 126 µg/mL (≈ 172 µM)
IC50, MES-SA/D×5 [16]: 163 µg/mL (≈ 223 µM)
IC50, HeLa [17]: 27 µg/mL (≈ 36.9 µM)
inhibition of HS-5 cells [18]: hardly inhibited
IC50, T98G [19]: 145 µg/mL (≈ 198 µM)
cell viability of co-cultured HS-5 and A2780cis cells ([20]; first day): 80%
cell viability of co-cultured HS-5 and A2780cis cells ([20]; third day): 57%
inhibition of A2780cis cells by combination with CP [21, 25]: 70%
IC50, A2780cis ([21]; third day (72 h)): 36 µg/mL (≈ 49.3 µM)
Ratio of hydrogelator to precursor after 4 hours [22]: 8.43
Hydrogelator (12) intracellular concentration ([22]; 4 hours, 37° C.): 582 μm
Precursor (10) intracellular concentration ([22]; 4 hours, 37° C.): 69 μm
inhibition of PC-12 cells ([23]; 20 μM (D-10) and 50 μM (L-10)): hardly inhibited
IC50, PC-12 ([23]; third day (72 h)): 62 µg/mL (≈ 84.8 µM)
